Laboratory results: patent publication US20130310611A1, “PROCESS FOR PRODUCTION OF PHENOLIC POLYMERIZABLE COMPOUND HAVING PHYSIOLOGICAL ACTIVITY” (UHA MIKAKUTO CO., LTD., priority 2010, published 2013)
Like-named read-outs stand apart in the source and are kept apart here.

How the values were obtained:
[1] = target: rat intestine derived lipase; test: Lipase inhibitory action test (Lipase kit S); assay type: biochemical; details: 30° C., 10 minutes reaction
Experimental: In order to see the inhibitory action to lipase of the phenolic polymerizable compound, an inhibitory action test using rat intestine derived lipase was performed.
As lipase, one obtained by suspending 100 mg of rat derived intestine acetone powder (manufactured by Sigma-Aldrich Japan) in 1 ml of 100 mM citric acid buffer (pH 6.0), stirred at 4° C. for 1 hour, centrifuging the same (at 15000 rpm for 45 minutes at 4° C.), and then diluting the supernatant by 1500 times was used as a lipase solution.
As samples, p-coumaric acid, ferulic acid, and coffeic acid and the UHA6005, the UHA6006, the UHA7009, the UHA7010, the UHA7011, the UHA8015, and the UHA9020 which were already purified were used. With respect to the preparation of the samples, each compound was dissolved in DMSO, and then prepared in such a manner as to achieve 0.1 mM, 0.5 mM, 1 mM, 2 mM, and 4 mM.
For measuring the activity, a “Lipase kit S” (Trade name, manufactured by Dainippon Pharmaceutical Co., Ltd.) was used. First, in accordance with a preparation method described in the catalog of the Lipase kit S, a color developing liquid was prepared. Reaction liquids in which 70 μl of the color developing liquid, 2 μl of an esterase inhibitor, 10 μl of the lipase solution, and 10 μl of the samples (Final concentration: 10 μM, 50 μM, 100 μM, 200 μM, 400 μM, and 1000 μM) were mixed were prepared, preincubated at 30° C. for 5 minutes, and then 8 μl of a substrate solution described in the catalog was added. Then, a reaction was started. After reacting for 10 minutes, 150 μl of a reaction stop liquid prepared in accordance with the preparation method described in the catalog of the Lipase kit S was added to stop the reaction. The resultant substance was subjected to a measurement of absorbancy at a wavelength of 415 nm. A reaction liquid to which only DMSO as the solvent of the sample was added was used as a positive control and one to which 10 μl of 100 mM citric acid buffer (pH 6.0) was added instead of the lipase solution was used as a negative control. From the relationship between the lipase inhibition rate calculated based on the data obtained therefrom and the concentration of each compound, the concentration IC50 at which the lipase activity is inhibited by 50% was calculated.

[2] = test system: SCC-4 cells (human oral cancer cells, ATCC); test: Cancer cell growth suppressing action using SCC-4 cells (MTT method, Cell counting kit-8); assay type: cell-based; details: 6.3-100 μM, read-out: Cell growth suppressing ability (IC50)
Experimental: Next, in order to see the effect of the phenolic polymerizable compound to oral cancer cells, cancer cell growth suppressing action using SCC-4 cells (human oral cancer cells, ATCC) was tested.
For culturing the SCC-4 cells, a DMEM/F-12 (1:1) culture medium (manufactured by GIBCO) containing 400 ng/mL hydrocortisone (manufactured by Sigma-Aldrich Japan), 1% antibiotic-antimycotic (manufactured by GIBCO), and 10% FBS (Foetal Bovine Serum, manufactured by ATCC) was used. For the test, a collagen I coat 96 well plate for cell culture (manufactured by Japan BD) was used, and SCC-4 cells whose number of cells was adjusted to be 5×10^5 cells/mL were seeded at 100 μL per well. The cells were cultured under the conditions of 37° C. and 5% CO2 for 24 hours, and were used for the test in a confluent state of 80% or higher.
As samples, p-coumaric acid and coffeic acid and the UHA6005, the UHA7009, the UHA7010, and the UHA7011 which were already purified were used. With respect to the preparation of the samples, each compound was dissolved in DMSO, and then prepared in such a manner as to achieve 0.63 mM, 1.25 mM, 2.5 mM, 5 mM, and 10 mM. The samples were added in such a manner that the final concentration in the SCC-4 cell culture solution was 6.3 μM, 12.5 μM, 25 μM, 50 μM, and 100 μM. Then, the test was started. A sample to which an equivalent amount of only DMSO as the solvent was added was used as a negative control.
The number of viable cells was quantified by an MTT method using a “Cell counting kit-8” in the same manner as in Example 18, and the concentration IC50 at which the cell growth is suppressed by 50% was calculated.

[3] = test system: HL-60 cells (human promyelocytic leukemia cells); test: Cancer cell growth suppressing action using HL-60 cells (MTT method, Cell counting kit-8); assay type: cell-based; details: 24 hours, 6.3-100 μM, read-out: Cell growth suppressing ability to HL-60 (IC50)
Experimental: Next, in order to see the effect of the phenolic polymerizable compound to cancer cells, cancer cell growth suppressing action using HL-60 cells (human promyelocytic leukemia cells) was tested.
For culturing the HL-60 cells, an enriched culture medium “RPMI-1640” (manufactured by Sigma-Aldrich Japan) containing 4 mM glutamine (L-Glutamine, manufactured by Sigma-Aldrich Japan) and 10% FBS (Foetal Bovine Serum, manufactured by Biological Industries) was used. For the test, a 96-well plate for cell culture (manufactured by Corning Japan) was used, and the HL-60 cells whose number of cells was adjusted to be 5×10^5 cells/mL were seeded at 100 μL per well.
As samples, p-coumaric acid, ferulic acid, coffeic acid, and sinapic acid, and the UHA6005, the UHA6006, the UHA7004, the UHA7009, the UHA7010, the UHA7011, the UHA8015, the UHA9019, and the UHA9020 which were already purified were used. With respect to the preparation of the samples, each compound was dissolved in DMSO (Wako Pure Chemical Industries, Ltd.), and then adjusted in such a manner that the final concentration in the HL-60 cell culture solutions was 6.3 μM, 12.5 μM, 25 μM, 50 μM, and 100 μM. Then, the test was started.
The number of viable cells was quantified by an MTT method using a “Cell counting kit-8” (manufactured by DOJINDO LABORATORIES). 24 hours after starting the test, 10 μl of a Cell counting kit-8 solution was added to each well, and then sufficiently stirred. After a shading reaction for 1 hour, the absorbancy was measured at a measurement wavelength of 450 nm using a plate leader (Biorad Laboratories, Inc., “BIO-RAD Model 680”). Then, the cell viability was calculated based on the obtained data. The cell viability is a value obtained by setting the number of viable cells of the culture liquid to which only DMSO as a solvent was added to 100%, and then calculating the number of viable cells under the concentration of each compound as a relative value. From the relationship between the concentration of each compound and the cell viability, the concentration IC50 (50% inhibition concentration) at which the cell growth is suppressed by 50% was calculated.

[4] = Solubility (physicochemical properties); details: for Solubility: DMSO: solvent DMSO; for Solubility: Chloroform: solvent chloroform; for Solubility: Ethanol: solvent ethanol; for Solubility: Ethyl acetate: solvent ethyl acetate; for Solubility: Methanol: solvent methanol; for Solubility: Water: solvent water

Row | IC50 [1] [µM] | IC50 [2] [µM] | IC50 [3] [µM] | Solubility: DMSO [4] | Solubility: Chloroform [4] | Solubility: Ethanol [4] | Solubility: Ethyl acetate [4] | Solubility: Methanol [4] | Solubility: Water [4] | IC50 ([3]; Homo sapiens) [µM] | IC50 ([2]; Homo sapiens) [µM] | Compound
1 | > 1000 | > 100 | > 100 |  |  |  |  |  |  |  |  | O=C(O)/C=C/c1ccc(O)c(O)c1 [Coffeic acid, reference compound]
2 | 188 |  |  | Soluble | Soluble | Soluble | Soluble | Soluble | Poorly soluble | 42.4 |  | CC(/C=C/c1cc(O)c(O)cc1C(C)c1ccc(O)c(O)c1)c1ccc(O)c(O)c1 (centres unmarked) [UHA6006]
3 | 197 |  |  | Soluble | Soluble | Soluble | Soluble | Soluble | Poorly soluble | 35.4 | 40.8 | CC(/C=C/c1ccc(O)c(C(C)c2ccc(O)cc2)c1)c1ccc(O)cc1 (centres unmarked) [UHA7011]
4 | 118 |  |  | Soluble | Soluble | Soluble | Soluble | Soluble | Non-soluble | 38.5 |  | COc1cc(/C=C/C(C)c2ccc(O)c(O)c2)ccc1O (centres unmarked) [UHA9020]
5 | > 1000 |  |  |  |  |  |  |  |  | > 100 |  | COc1cc(/C=C/C(=O)O)ccc1O [Ferulic acid, reference compound]
6 | 438 |  |  | Soluble | Soluble | Soluble | Soluble | Soluble | Poorly soluble | 49.3 | 72.9 | CC(/C=C/c1ccc(O)cc1)c1ccc(O)cc1 (centres unmarked) [UHA7009]
7 | 350 |  |  | Soluble | Soluble | Soluble | Soluble | Soluble | Non-soluble | 74.3 |  | COc1cc(C(C)/C=C/c2ccc(O)cc2)ccc1O (single isomer, unassigned) [UHA8015]
8 | > 1000 |  |  |  |  |  |  |  |  | > 100 | > 100 | O=C(O)/C=C/c1ccc(O)cc1 [p-coumaric acid, reference compound]
9 |  |  |  |  |  |  |  |  |  | > 100 |  | COc1cc(/C=C/C(=O)O)cc(OC)c1O [Sinapic acid, reference compound]
10 | 60.4 |  |  | Soluble | Soluble | Soluble | Soluble | Soluble | Poorly soluble | 35.3 | 61.1 | CC(CC(/C=C/c1ccc(O)cc1)c1ccc(O)cc1)c1ccc(O)cc1 (centres unmarked) [UHA7010]
11 | 253 |  |  | Soluble | Soluble | Soluble | Soluble | Soluble | Poorly soluble | 43.7 | 69.7 | CC(/C=C/c1ccc(O)c(O)c1)c1ccc(O)c(O)c1 (centres unmarked) [UHA6005]
12 |  |  |  | Soluble | Soluble | Soluble | Soluble | Soluble | Poor soluble | 66.2 |  | COc1cc(/C=C/C(C)c2cc(OC)c(O)c(OC)c2)cc(OC)c1O (centres unmarked) [UHA9019]
13 |  |  |  | Soluble | Soluble | Soluble | Soluble | Soluble | Poorly soluble | 17.6 |  | COc1cc(/C=C/C(C)c2ccc(O)c(OC)c2)ccc1O (centres unmarked) [UHA7004]
